Experimental data as given in patent US20030154499A1, “Mouse unable to express functional alpha-4 integrin protein, and methods for assaying compounds or agents for alpha-4 integrin protein antagonist activity and a genetic marker for evaluating efficacy of modulators of signaling activity of a VLA-4 receptor” (priority 2001, published 2003).

Experiments:
Type in all cases: in vivo
EST AA154371 = test: Taqman analysis of EST AA154371 in brain and spleen of treated EAE mice
Procedure: (§1) In these experiments, EAE (experimental allergic encephalomyelitis) mice were used. The EAE mouse is an animal model for Central Nervous System (CNS) autoimmune disease. It is widely used as a human Multiple Sclerosis (MS) model.
(§2) EAE mice (see protocol below) vehicle only treated and treated with IVL984 or HMR1031 for 14 days (5 mice per group) were sacrificed by cervical dislocation. The brain was aseptically removed and the RNA was prepared using a standard Trizol (Invitrogen) prep (protocol see below). The prepped RNA was run on an agarose gel to determine the quality of the RNA and quantified by UV spec analysis. Taqman analysis was performed using sequence specific primers and probes (sequence see below).
PLP139-151 peptide is dissolved in H2O:PBS (1:1) solution to a concentration 5 mg/10 ml (for 50 ug PLP per mouse) or 7.5 mg/10 ml (for 75 ug PLP per […]) and emulsified with an equal volume of CFA supplemented with 40 mg/10 ml heated-killed mycobacterium tuberculosis H37Ra. Mice are injected s.c. with 0.2 ml of peptide emulsion in the abdominal flank (0.1 ml on each side). On the same day and 72 hr later, mice are injected i.v. with 100 μl of 35 ng and 50 ng of Bordetella Pertussis toxin in saline respectively. Treatment IVL984 or HMR1031 or vehicle control only: 0.2% Hydroxypropyl Methylcellulose) started 7 days after immunization, before the first EAE symptoms appeared.
(§3) EAE mice treated with HMR1031A, 50 mg/kg, q.d., s.c. for 14 days from day 7
(§4) EAE mice treated with IVL984 50 mg/kg, q.d., s.c. for 14 days from day 7
(§5) Brain was divided into two halves and each half was placed in a sterile 1.5 ml tube. 0.5 ml TRIzol was added to each tube and the tissue was homogenized using a hand held tissue homogenizer. […]
(§6) The final pellets were briefly air dried and resuspended in nuclease-free, sterile water. […] The concentration was determined by measuring the absorbance at 260 nm.
Taqman primers were ordered for the EST with the accession number AA154371 (EST AA154371 (sequence for the EST: SEQ ID NO 21). Primers for the real time Taqman PCR studies were chosen using Primer Express software (Perkin Elmer) and synthesized by Sigma Genosys. The sequences of the forward and reverse primers were GACAGGGCTGAGGATTCGG (SEQ ID NO: 22) and […] (SEQ ID NO: 23) respectively. PCR product was run on the 4% agarose gel to confirm presence of a single band. PCR reactions were run on ABI Prizm System 7700 sequence detector (Perkin-Elmer) using CybrGreen PCR Core Reagents Kit (Perkin-Elmer) according to the manufacturer's protocol. […] The results were normalized to 18S and expressed as logarithm base 2 of copy number difference with18S RNA levels. […]

EST AA571535 = test: Taqman analysis of EST AA571535 in brain and spleen of treated EAE mice
Procedure: as §1, §2
(§7) PLP139-151 peptide is dissolved in H2O:PBS (1:1) solution to a concentration 5 mg/10 ml (for 50 ug PLP per mouse) or 7.5 mg/10 ml (for 75 ug PLP per group) and emulsified with an equal volume of CFA supplemented with 40 mg/10 ml heated-killed mycobacterium tuberculosis H37Ra. Mice are injected s.c. with 0.2 ml of peptide emulsion in the abdominal flank (0.1 ml on each side). On the same day and 72 hr later, mice are injected i.v. with 100 μl of 35 ng and 50 ng of Bordetella Pertussis toxin in saline respectively.
(§8) Treatment IVL984 or HMR1031 or vehicle control only: 0.2% Hydroxypropyl Methylcellulose) started 7 days after immunization, before the first EAE symptoms appeared.
as §3, §4, §5, §6
Taqman primers were ordered for the EST with the accession number AA571535 (EST AA571535 (sequence for the EST: SEQ ID NO 18). Primers for the real time Taqman PCR studies were chosen using Primer Express software (Perkin Elmer) and synthesized by Sigma Genosys. The sequences of the forward and reverse primers were AGCAGCCATGGGAGGCA (SEQ ID NO: 19) and TCCGTTTCCCCACAGCAC (SEQ ID NO: 20) respectively. PCR product was run on the 4% agarose gel to confirm presence of a single band. PCR reactions were run on ABI Prizm System 7700 sequence detector (Perkin-Elmer) using CybrGreen PCR Core Reagents Kit (Perkin-Elmer) according to the manufacturer's protocol. […] The results were normalized to 18S and expressed as logarithm base 2 of copy number difference with18S RNA levels. […]

[1] = system: M. musculus mRNA for macrophage mannose receptor; test: Taqman analysis of macrophage mannose receptor mRNA in brain and spleen of treated EAE mice
Procedure: as §1, §2, §7, §8, §3, §4
Brain was divided into two halves and each half was placed in a steril 1.5 ml tube. 0.5 ml TRIzol was added to each tube and the tissue was homogenized using a hand held tissue homogenizer. After homogenization, another 0.5 ml of TRIzol was added to each tube and the samples were incubated for 5 minutes at room temperature to permit complete dissociation of nucleoprotein complexes.
0.2 ml of Chloroform (Sigma) was added to each tube and vortexed. Samples were incubated for an additional 5 minutes at room temperature and then centrifuged at 12,000×g for 15 minutes at 4° C.
The upper aqueous phase was transferred into a fresh, steril tube and the two sample halves per mouse were combined. 0.5 ml isopropylalcohol was added to each combined sample, vortexed and incubated at room temperature for 10 minutes. The samples were then centrifuged at 12,000×g at 4° C. […]
as §6
Taqman primers were ordered for Mus musculus mRNA for macrophage mannose receptor (Accession number: Z11974). […] The results were normalized to 18S and expressed as logarithm base 2 of copy number difference with 18S RNA levels. […]

JAB or SOCS-1 protein = test: FACS analysis of SOCS-1 (JAB) protein in spleen cells of treated EAE mice; conditions: 50 mg/kg q.d. s.c. for 14 days from day 7, FACS with C- and N-terminal antibodies, vs vehicle
Excerpt: In these experiments, EAE (experimental allergic encephalomyelitis) mice as well as KO and wt mice of the present invention were used. The EAE mouse is an animal model for Central Nervous System (CNS) autoimmune disease. It is widely used as a human Multiple Sclerosis (MS) model.
EAE mice (see protocol below) vehicle only treated and treated with IVL984 for 14 days (5 mice per group) as well as 5 alpha-4 integrin KO mice of the present invention and 4 wt mice of the same genetic background were sacrificed by cervical dislocation. The spleen was aseptically removed and placed in a 15 ml centrifuge tube containing RPMI 1640 medium with 1% FCS. The spleens were then individually meshed in a 10 cm petri dish through a sterile wire screen using a sterile rubber policeman (0.23 mm pore size screen, Thomas Scientific). The screen was washed and the cell suspension collected and transferred into a 15 ml centrifuge tube. After centrifugation at 1200 rpm for 10 minutes at 4° C., the supernatant was decanted and the red blood cells lysed with 1 ml/spleen ice-cold red blood cell lysis buffer for 1-3 minutes on ice. The supernatant was then carefully transferred into a fresh 15 ml centrifuge tube, leaving the fat pellet behind. […] The number of alive cells was determined using a hemacytometer (Hauser Scientific) and Trypan Blue (Gibco, Life Technologies) as the dye. […]

[2] = EAE mice, 50 mg/kg q.d. s.c. for 14 days from day 7, brain, vs vehicle control
[3] = EAE mice, 50 mg/kg q.d. s.c. for 14 days from day 7, spleen, vs vehicle control
[4] = bodily samples of treated EAE mice, tissue not given

## COc1cc(CC(=O)Nc2ccc([C@@H](CC(=O)O)NC(=O)CCCC(=O)O)cc2)ccc1NC(=O)Nc1ccccc1C [IVL 984]
EST AA154371; [2]
  EST AA 154371, Brain: ✓ (Statistically significant decrease in macrophage mannose receptor mRNA or protein levels with a 5% or lower probability rate in treated mice compared to vehicle control mice.)
EST AA154371; [3]
  EST AA 154371, Spleen: ✓ (Statistically significant decrease in macrophage mannose receptor mRNA or protein levels with a 5% or lower probability rate in treated mice compared to vehicle control mice.)
EST AA154371; EAE mice, brain samples
  EST AA154371 mRNA levels in comparison to vehicle control mice: statistically significant lower
EST AA154371; [4]
  levels of the genetic marker EST AA154371: decreased levels of expression
EST AA571535; [2]
  EST AA 571535, Brain: — (The changes in mRNA levels are statistically significant at a probability rate of higher than 15% (not significant).)
EST AA571535; [3]
  EST AA 571535, Spleen: — (The changes in mRNA levels are statistically significant at a probability rate of higher than 15% (not significant).)
EST AA571535; EAE mice, brain samples
  EST AA571535 mRNA levels in comparison to vehicle control mice: statistically significant lower
EST AA571535; [4]
  levels of the genetic marker EST AA571535: decreased levels of expression
[1]; [2]
  Macrophage mannose receptor, Brain: Tendency (The decrease in macrophage mannose receptor mRNA levels is a statistically significant, a probability rate of 5-15%.)
[1]; [3]
  Macrophage mannose receptor, Spleen: — (The changes in mRNA levels are statisically significant at a probability rate of higher than 15% (not significant).)
[1]; EAE mice, brain samples
  macrophage mannose receptor mRNA levels in comparison to vehicle control mice: statistically significant lower
[1]; [4]
  levels of the genetic marker macrophage mannose receptor mRNA: decreased levels of expression
JAB or SOCS-1 protein
  levels of JAB or SOCS-1 protein: decreased levels of expression on the protein level
